Reference: paper PMC13099078 (2023)

What was measured:
[1] = tested on: vancomycin-binding aptamer (45-base; EAB sensor) (DNA, aptamer) CGAGGGTACCGCAATAGTACTTATTGTTCGCCTATTGTGGGTCGG; test: differential pulse voltammetry; details: 2 mM Mg2+, PBS; 1x PBS, 37°C; apparent; Langmuir fit
[2] = tested on: vancomycin-binding aptamer (45-base; EAB sensor) (DNA, aptamer) CGAGGGTACCGCAATAGTACTTATTGTTCGCCTATTGTGGGTCGG; test: alternating current voltammetry; details: 2 mM Mg2+, PBS; 1x PBS, 37°C; apparent; Langmuir fit; 50 and 5 Hz

SMILES: CN[C@H](CC(C)C)C(=O)N[C@H]1C(=O)N[C@@H](CC(N)=O)C(=O)N[C@H]2C(=O)N[C@H]3C(=O)N[C@H](C(=O)N[C@H](C(=O)O)c4cc(O)cc(O)c4-c4cc3ccc4O)[C@H](O)c3ccc(c(Cl)c3)Oc3cc2cc(c3O[C@@H]2O[C@H](CO)[C@@H](O)[C@H](O)[C@H]2O[C@H]2C[C@](C)(N)[C@H](O)[C@H](C)O2)Oc2ccc(cc2Cl)[C@H]1O
- Kd [1]: 76 ± 6 µM
- Kd [2]: 46 ± 4 µM
